Data reported in patent US12351574B2, “Selective ligands for modulation of GIRK channels” (Northeastern University, priority 2018, dated 2025).

How the values were obtained:
GIRK1/4 = target: T1, GIRK1/4 (Homo sapiens, UniProt P48544+P48549); assay: two-electrode voltage clamp (TEVC) in Xenopus oocytes expressing GIRK1/4 wild-type; format: cell-based; design: expressed in transfected cells; host or cells: Xenopus laevis oocytes (cRNA injection)
T1 sequence (P48549 1-501): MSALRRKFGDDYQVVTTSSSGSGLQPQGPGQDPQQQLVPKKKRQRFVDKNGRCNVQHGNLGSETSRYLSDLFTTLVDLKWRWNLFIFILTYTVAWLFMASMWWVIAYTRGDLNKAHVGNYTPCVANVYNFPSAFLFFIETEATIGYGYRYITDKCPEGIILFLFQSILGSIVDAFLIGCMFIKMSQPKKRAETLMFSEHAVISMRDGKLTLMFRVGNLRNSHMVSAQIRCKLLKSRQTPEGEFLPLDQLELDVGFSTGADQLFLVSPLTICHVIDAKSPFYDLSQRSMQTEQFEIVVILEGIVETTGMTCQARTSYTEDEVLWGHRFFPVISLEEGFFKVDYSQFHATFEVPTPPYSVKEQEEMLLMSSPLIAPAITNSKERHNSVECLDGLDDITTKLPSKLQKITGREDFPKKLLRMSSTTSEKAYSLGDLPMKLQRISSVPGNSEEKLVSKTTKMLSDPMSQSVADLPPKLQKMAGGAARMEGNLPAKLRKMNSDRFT
T1 sequence (P48544 1-419): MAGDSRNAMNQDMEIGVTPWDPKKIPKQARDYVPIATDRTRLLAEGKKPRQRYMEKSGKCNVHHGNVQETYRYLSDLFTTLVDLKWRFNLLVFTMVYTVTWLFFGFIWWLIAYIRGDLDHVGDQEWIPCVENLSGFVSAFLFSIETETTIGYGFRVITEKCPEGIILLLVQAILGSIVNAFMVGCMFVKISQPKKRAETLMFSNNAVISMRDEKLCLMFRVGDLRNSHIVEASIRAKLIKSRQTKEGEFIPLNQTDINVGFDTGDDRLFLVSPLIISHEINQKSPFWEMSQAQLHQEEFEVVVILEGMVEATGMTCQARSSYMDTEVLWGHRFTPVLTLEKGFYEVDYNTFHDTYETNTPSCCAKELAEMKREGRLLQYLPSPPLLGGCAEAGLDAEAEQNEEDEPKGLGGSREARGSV
From the text: Molecular biology: For Xenopus oocyte expression, human GIRK1 and human GIRK4 cDNAs were subcloned into pGEMHE. For mammalian expression, human GIRK1 and human GIRK4 cDNAs were subcloned into pcDNA3 and pcDNA3.1/V5-His B, respectively (Invitrogen). Mouse GIRK2 cDNA was subcloned in the dual-function vector, pXoom. Point mutations were introduced using a standard Pfu-based mutagenesis technique according to the QuikChange protocol (Agilent). Mutations were verified by sequencing.
Xenopus laevis oocyte expression: Plasmid DNAs of GIRK channel subunits were linearized prior to in vitro transcription. Capped RNAs were transcribed using mMESSAGE mMACHINE T7 Transcription Kit (Thermo Fisher Scientific). Xenopus oocytes were surgically extracted, dissociated and defolliculated by collagenase treatment, and microinjected with 50 nl of a water solution containing 1 ng of each GIRK subunit RNA. For TEVC experiments, oocytes were kept 2 days at 17° C. before recording, while for NPo experiments oocytes were incubated for up to 4 days at 17° C.
Xenopus laevis oocyte expression: All cDNA constructs in the pGEMHE vector were linearized using the NheI restriction enzyme, whereas those in the pXoom vector were linearized using the XhoI restriction enzyme. Linearized cDNAs were in vitro-transcribed using the mMessage mMachine® kit (Ambion) kit. Complementary RNA (cRNA) concentrations were quantified by optical density. Xenopus oocytes were surgically extracted, dissociated, and defolliculated by collagenase treatment and microinjected with 50 nl of the desired cRNAs diluted in RNAase-free water. The use of Xenopus laevis frogs for this study was approved by the Institutional Animal Care and Use Committee (IACUC) at Northeastern University. All constructs used in this study were injected to achieve between 1-2 ng per oocyte depending on the channel. Oocytes were incubated for 2 days at 18° C.
Electrophysiology of oocytes: Whole-oocyte currents were measured by conventional two-electrode voltage clamp (TEVC) with a GeneClamp 500 amplifier (Axon Instruments). […] Barium-sensitive currents were normalized to average basal current in the vehicle solutions. The HK solution contained the following: 96 mM KCl, 1 mM NaCl, 1 mM MgCl2, 5 mM KOH/HEPES, pH 7.4. The barium solution consisted of HK+10 mM BaCl2. Five to ten oocytes from the same batch (same frog) were recorded for each group, and the experiments were repeated in at least four batches. Data acquisition and analysis were carried out using pClamp9 (Molecular Devices) and OriginPro (Microcal) software.

[1] = cardiovascular radiotelemetry in freely moving rats; format: in vivo, rat; details: 30 mg/kg
Description: Cardiovascular experiments: Radiotelemetry probes [Cat. no. HD-S11, Data Sciences International, St. Paul, MN, United States] were surgically implanted into the peritoneal cavity and sutured to the muscle wall in order to assess general motor activity and temperature. A pressure transducer was implanted into the femoral artery to assess cardiovascular responses [i.e., mean arterial blood pressure (MAP) and heart rate (HR)]. Animals were injected with selected compounds following a 10 min baseline period and data points were analayzed between 20 min and 60 min after injection. This allowed us to investigate ligand effects without confounding effects of animal handling or the injection itself and to allow the ligand to cross the blood-brain barrier.

Row | GAT1508-induced potassium current, GIRK1/4 (in words) (GIRK1/4; 10 μM, 10 mM K+, holding potential −100 mV) | GAT1508-induced thallium current, GIRK1/4 (in words) (GIRK1/4; 10 μM, 10 mM thallium, holding potential −100 mV) | compound-induced current normalized to the basal current, GIRK1+GIRK4 (GIRK1/4; 10 μM, High Potassium (HK) solution, FIG. 31) | EMAX at GIRK1/4, % relative to ML297 (GIRK1/4; ML297 considered 100%) [%] | EC50 (GIRK1/4; TEVC, Xenopus oocytes, GIRK1/4 wild-type) [nM] | EMAX at GIRK1/4 (GIRK1/4; current normalized to basal current) | Structure (SMILES) | change in heart rate (HR) (in words) [1] | change in locomotor activity (LA) (in words) [1] | change in mean arterial pressure (MAP) (in words) [1] | change in body temperature (BT) (in words) [1]
1 | not | induced current increases | – | – | – | – | Cc1cc(NC(=O)Nc2ccc(Br)s2)n(-c2ccccc2)n1 [GAT1508, 1-(5-bromothiophen-2-yl)-3-(3-methyl-1-phenyl-1H-pyrazol-5-yl)urea] | no significant changes | no significant changes | no significant changes | –
2 | – | – | ~1.75 | 100 | 500 ± 260 | 1.60±0.07 | Cc1cc(NC(=O)Nc2ccc(F)c(F)c2)n(-c2ccccc2)n1 [ML297, reference compound] | paradoxical long-lasting increases | without affecting significantly | paradoxical long-lasting increases | without affecting significantly
